Tested on: Plasmodium berghei
Experiment: Luciferase/luciferin-expressing antifolate-resistant parasites were used to infect a culture of HepG2 cells that were pre-incubated with compounds. Infected hepatocytes emit light due to the luciferase reaction. Assay results are presented as the percent inhibition of light emission compared to control. […]
Type: functional
Details: sporozoite; for IC90: read-out: LUCIFERASE INFECTION ASSAY - IC90
[1] = read-out: LUCIFERASE INFECTION ASSAY - IC50

Structure (SMILES)	IC90 [µM]	other results
COc1ccc(-c2cnc3cnc(-c4ccc(CO)cc4)cn23)cn1	9.63	IC50 (PBLUC_HILL_SLOPE 6.35, PBLUC_R_SQUARED 0.601, read-out: LUCIFERASE INFECTION ASSAY - IC50): 6.81 µM
Nc1ccc(-c2cn3c(-c4ccc(CO)cc4)cnc3cn2)cn1	9.13	IC50 [1]: 5.8 µM
Cc1ccc(/C=C(\C#N)c2nc(=O)c3c4c(sc3[nH]2)CC(C)CC4)o1 (stereo not given)	> 10	IC50 [1]: > 10 µM
CN(C)CCNC(=O)c1ccc(-c2cnc3c(Nc4cccc(C(F)(F)F)c4)nccn23)cc1	> 7.04	IC50 (PBLUC_HILL_SLOPE 63.8, PBLUC_R_SQUARED 0.339, read-out: LUCIFERASE INFECTION ASSAY - IC50): 6.95 µM
c1ccc(-c2cnc3sc(NCCc4ccncc4)nn23)cc1	> 10.3	IC50 [1]: > 10.3 µM
CC1CC(C)CN(C(=O)CN2CCN(CC(=O)Nc3ccc(N4CCCCCC4)cc3)CC2)C1 (stereo not given)	> 10	IC50 (PBLUC_HILL_SLOPE 1.09, PBLUC_R_SQUARED 0.619, read-out: LUCIFERASE INFECTION ASSAY - IC50): 3.56 µM
COc1cccc(N2CCN(CC(=O)c3c[nH]c4ccccc34)CC2C)c1 (stereo not given)	> 9.08	IC50 (PBLUC_HILL_SLOPE 1.43, PBLUC_R_SQUARED 0.653, read-out: LUCIFERASE INFECTION ASSAY - IC50): 4.63 µM
O=C(Cn1cc(C(=O)c2ccccc2)c2ccccc21)Nc1ccc(F)cc1	> 8.86	IC50 (PBLUC_HILL_SLOPE 1.46, PBLUC_R_SQUARED 0.555, read-out: LUCIFERASE INFECTION ASSAY - IC50): 3.31 µM
CCOC(=O)c1[nH]c(CN2CCN(c3ccccc3)CC2)c(C(=O)OCC)c1C	> 10	IC50 (PBLUC_HILL_SLOPE 7.85, PBLUC_R_SQUARED 0.611, read-out: LUCIFERASE INFECTION ASSAY - IC50): 8.25 µM
COCC(C)n1c(COc2ccccc2F)nnc1SC(C(=O)Nc1cc(C(F)(F)F)ccc1Cl)c1ccccc1 (stereo not given)	9.85	IC50 (FFLUC_HILL_SLOPE 3.29, FFLUC_R_SQUARED 0.0514, HEPG2TOX_HILL_SLOPE 2.28, HEPG2TOX_R_SQUARED 0.446, PBLUC_HILL_SLOPE 4.03, PBLUC_R_SQUARED 0.508, read-out: LUCIFERASE INFECTION ASSAY - IC50): 5.71 µM
CC(Nc1ccc(N(C)C(C)C)c(F)c1)C(=O)N1CCCC1 (stereo not given)	9.36	IC50 (PBLUC_HILL_SLOPE 12.8, PBLUC_R_SQUARED 0.621, read-out: LUCIFERASE INFECTION ASSAY - IC50): 7.89 µM
Cc1ccc(-n2nnnc2SCc2c(F)cccc2Cl)c(C)c1	> 9.46	IC50 (HEPG2TOX_HILL_SLOPE 2.61, HEPG2TOX_R_SQUARED 0.917, PBLUC_HILL_SLOPE 6.38, PBLUC_R_SQUARED 0.299, read-out: LUCIFERASE INFECTION ASSAY - IC50): 8.85 µM
Cn1cc(/C=C/C(=O)c2ccc(-c3ccc(F)cc3)s2)cn1	> 10	IC50 [1]: > 10 µM
CC(Sc1nnc(-c2cccs2)n1C(C)C1CC2CCC1C2)C(=O)N1CCCc2ccccc21 (stereo not given)	> 10	IC50 (FFLUC_HILL_SLOPE 9.01, FFLUC_R_SQUARED 0.23, read-out: LUCIFERASE INFECTION ASSAY - IC50): > 10 µM
Cc1cccc(-c2nnc(Sc3nc(C)nc4sc5c(c34)CCCC5)n2CC(N)=O)c1	1.1	IC50 (HEPG2TOX_HILL_SLOPE 8.24, HEPG2TOX_R_SQUARED 0.61, PBLUC_HILL_SLOPE 14.6, PBLUC_R_SQUARED 0.735, read-out: LUCIFERASE INFECTION ASSAY - IC50): 0.944 µM
CC(C)Cc1nc2oc3c(NCCN(C)C)ncnc3c2c2c1COC(C)(C)C2	> 8.3	IC50 (PBLUC_HILL_SLOPE 11.6, PBLUC_R_SQUARED 0.0696, read-out: LUCIFERASE INFECTION ASSAY - IC50): 7.66 µM
O=C(Nc1cccc(C(F)(F)F)c1)c1cc(Cl)c(=O)n(Cc2cccc(C(F)(F)F)c2)c1	> 6.95	IC50 (HEPG2TOX_HILL_SLOPE 12.5, HEPG2TOX_R_SQUARED 0.604, PBLUC_HILL_SLOPE 13, PBLUC_R_SQUARED 0.312, read-out: LUCIFERASE INFECTION ASSAY - IC50): 6.47 µM
CN1CCN(c2ccc(NC(=O)c3c[nH]c4ccc(Br)cc34)cn2)CC1	> 10	IC50 (PBLUC_HILL_SLOPE 3.31, PBLUC_R_SQUARED 0.596, read-out: LUCIFERASE INFECTION ASSAY - IC50): 8.19 µM
O=C1Nc2ccc(Cl)cc2/C1=C/c1nn(Cc2ccccc2)cc1-c1cccnc1	> 10	IC50 (FFLUC_HILL_SLOPE 9.69, FFLUC_R_SQUARED 0.424, PBLUC_HILL_SLOPE 9.27, PBLUC_R_SQUARED 0.306, read-out: LUCIFERASE INFECTION ASSAY - IC50): 8.59 µM
CCCCn1c(CSc2ccccn2)cn(-c2nnc(C(C)(C)C)s2)c1=O	> 8.18	IC50 [1]: > 8.18 µM

Structure (SMILES)	IC90 [µM]	other results
COc1ccc(CC(N)c2csc(NC(=O)Nc3ccccc3C(C)(C)C)n2)cc1 (stereo not given)	4.27	IC50 (PBLUC_HILL_SLOPE 104, PBLUC_R_SQUARED 0.386, read-out: LUCIFERASE INFECTION ASSAY - IC50): 4.18 µM
O=C(NCC1CC1)c1cccc(C2(CNCCCN3CCOCC3)CC2)c1	> 10	IC50 [1]: > 10 µM
O=c1c(Cl)c2[nH]c3ccccc3nc-2c2ccccc12	> 11.8	IC50 [1]: > 11.8 µM
CC(C)NC(=O)c1c(NC(=O)c2ccc(C#N)cc2)nc2ccccn12	> 9.5	IC50 (HEPG2TOX_HILL_SLOPE 1.96, HEPG2TOX_R_SQUARED 0.946, PBLUC_HILL_SLOPE 9.83, PBLUC_R_SQUARED 0.197, read-out: LUCIFERASE INFECTION ASSAY - IC50): 8.07 µM
O=C1N(Cc2ccccc2)C(=O)C2(CCN(CC3CC=CCC3)CC2)N1CCc1ccccc1 (stereo not given)	> 7.21	IC50 (HEPG2TOX_HILL_SLOPE 1.57, HEPG2TOX_R_SQUARED 0.788, PBLUC_HILL_SLOPE 4.98, PBLUC_R_SQUARED 0.479, read-out: LUCIFERASE INFECTION ASSAY - IC50): 4.9 µM
CN(C)S(=O)(=O)c1ccc2oc3nnc(SCc4csc(-c5ccccc5)n4)n3c2c1	> 10	IC50 [1]: > 10 µM
COc1ccc(C(=O)N2CCC(Cc3ccccc3)CC2)c(O)c1	> 10	IC50 (HEPG2TOX_HILL_SLOPE 0.725, HEPG2TOX_R_SQUARED 0.627, PBLUC_HILL_SLOPE 3.95, PBLUC_R_SQUARED 0.49, read-out: LUCIFERASE INFECTION ASSAY - IC50): 7.88 µM
O=C(OCc1cccc(Cl)c1)c1cncn1-c1ccccc1	> 10	IC50 [1]: > 10 µM
OC(COc1ccc(OC(F)(F)F)cc1)CN1CCN(c2nc3ccc(Cl)cc3s2)CC1 (stereo not given)	> 6.76	IC50 (HEPG2TOX_HILL_SLOPE 3.53, HEPG2TOX_R_SQUARED 0.823, PBLUC_HILL_SLOPE 2.94, PBLUC_R_SQUARED 0.35, read-out: LUCIFERASE INFECTION ASSAY - IC50): 4.19 µM
Cn1c(-c2cccc(C(F)(F)F)c2)cc2c(Nc3cccnc3)nccc21	> 10	IC50 (FFLUC_HILL_SLOPE 13.4, FFLUC_R_SQUARED 0.159, PBLUC_HILL_SLOPE 11.7, PBLUC_R_SQUARED 0.342, read-out: LUCIFERASE INFECTION ASSAY - IC50): 9.06 µM
COC(=O)c1c(C)[nH]c(C(=O)Nc2ccc(C)cn2)c1C	2.63	IC50 (FFLUC_HILL_SLOPE 0.774, FFLUC_R_SQUARED 0.984, PBLUC_HILL_SLOPE 0.487, PBLUC_R_SQUARED 0.641, read-out: LUCIFERASE INFECTION ASSAY - IC50): 0.0288 µM
CCN(CC)S(=O)(=O)c1ccc(OC(C)C)c(NC(=O)c2cc(C3CC3)nc3c2cnn3C(C)C)c1	> 10	IC50 (FFLUC_HILL_SLOPE 16.5, FFLUC_R_SQUARED 0.255, read-out: LUCIFERASE INFECTION ASSAY - IC50): > 10 µM
O=C(NCc1ccccn1)c1nn(CCc2ccccc2)c2c1CN(Cc1cccc3c1OCO3)CC2	> 6.66	IC50 (PBLUC_HILL_SLOPE 2.34, PBLUC_R_SQUARED 0.543, read-out: LUCIFERASE INFECTION ASSAY - IC50): 5.68 µM
CC1(C)N=C(N)N=C(N)N1c1ccc([N+](=O)[O-])cc1	> 10	IC50 [1]: > 10 µM
CCOc1ccc(-c2n[nH]c3c2C(c2ccccc2)N(c2ccccc2)C3=O)cc1 (stereo not given)	> 8.34	IC50 (FFLUC_HILL_SLOPE 11.9, FFLUC_R_SQUARED 0.867, HEPG2TOX_HILL_SLOPE 2.22, HEPG2TOX_R_SQUARED 0.878, read-out: LUCIFERASE INFECTION ASSAY - IC50): > 8.34 µM
N#C/C(=N\Nc1cc(C(F)(F)F)cc(C(F)(F)F)c1)C(=O)c1ccco1	8.44	IC50 (FFLUC_HILL_SLOPE 13.1, FFLUC_R_SQUARED 0.556, HEPG2TOX_HILL_SLOPE 1.19, HEPG2TOX_R_SQUARED 0.748, PBLUC_HILL_SLOPE 4.82, PBLUC_R_SQUARED 0.319, read-out: LUCIFERASE INFECTION ASSAY - IC50): 5.35 µM
Cc1ccc(-c2nc3c(s2)CN(C(=O)c2ccc4c(c2)OCO4)CC3)cc1	> 8.72	IC50 (HEPG2TOX_HILL_SLOPE 8.84, HEPG2TOX_R_SQUARED 0.538, PBLUC_HILL_SLOPE 2.18, PBLUC_R_SQUARED 0.0909, read-out: LUCIFERASE INFECTION ASSAY - IC50): 7.14 µM
O=S(=O)(c1ccc(Cl)c(N=C2NN=C(c3c[nH]c4ccccc34)CS2)c1)N1CCOCC1	> 10	IC50 (FFLUC_HILL_SLOPE 3.06, FFLUC_R_SQUARED 0.687, HEPG2TOX_HILL_SLOPE 3.66, HEPG2TOX_R_SQUARED 0.952, PBLUC_HILL_SLOPE 1.64, PBLUC_R_SQUARED 0.734, read-out: LUCIFERASE INFECTION ASSAY - IC50): 3.83 µM
CCc1nc(Sc2nnnn2-c2ccccc2)c2c3c(sc2n1)CCCC3	> 10	IC50 [1]: > 10 µM
OC(c1cccc(OC(F)(F)F)c1)c1nnc(Nc2ccc(F)c(Cl)c2)s1 (stereo not given)	> 10	IC50 (FFLUC_HILL_SLOPE 2.61, FFLUC_R_SQUARED 0.0634, read-out: LUCIFERASE INFECTION ASSAY - IC50): > 10 µM

— ChEMBL document CHEMBL4483862, “Open-source discovery of chemical leads for next-generation chemoprotective antimalarials” (2018)
